Experimental data as given in publication PMC9246256, “Structure-based optimization of type III indoleamine 2,3-dioxygenase 1 (IDO1) inhibitors” (Journal of Enzyme Inhibition and Medicinal Chemistry, 2022).
“And” between values parts separate entries of the source, which are not always exact repeats. Equal entries are not always repeated. Where two headings read alike, the source gives them in different places.

What was measured:
[1] = biological target: T1, purified recombinant IDO1 (Homo sapiens, UniProt P14902); assay: Enzymatic IDO1 inhibition assay (ascorbate/methylene blue reduction system, HPLC detection of kynurenine); assay type: biochemical; conditions: for LE [kcal/mol/HA]: ligand efficiency, LE = -RT log(IC50)/number of heavy atoms, from enzymatic IC50; for IC50: enzymatic, L-Trp 100 µM, 0.01% Triton X-100, 5% DMSO, 20 min at room temperature, pH 6.5, duplicates, read-out: IC50 [ μ M] (SD)
T1 construct: Full-length human IDO1 gene was cloned into the pET-28a vector; inferred from pET-28a vector and HisTrap purification; made in house; host or cells: E. coli Rosetta (DE3)
T1 sequence (P14902 whole entry): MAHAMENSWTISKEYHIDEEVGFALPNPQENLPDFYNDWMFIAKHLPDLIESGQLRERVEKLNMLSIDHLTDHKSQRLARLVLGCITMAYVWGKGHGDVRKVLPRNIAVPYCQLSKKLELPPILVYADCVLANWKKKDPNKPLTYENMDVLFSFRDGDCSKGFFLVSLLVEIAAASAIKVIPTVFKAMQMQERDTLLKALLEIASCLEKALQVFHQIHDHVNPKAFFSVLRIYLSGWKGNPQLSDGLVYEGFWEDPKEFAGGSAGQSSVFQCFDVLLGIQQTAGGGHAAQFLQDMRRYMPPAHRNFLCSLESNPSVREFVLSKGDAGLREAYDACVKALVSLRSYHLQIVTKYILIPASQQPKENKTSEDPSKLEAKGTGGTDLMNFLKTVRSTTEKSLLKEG
Description: Enzymatic IC50 values were measured with the ascorbate/methylene blue reduction system[85] in presence of a non-ionic detergent to reduce compound aggregation as described before[28]. Kynurenine and L-Trp concentrations were determined by HPLC through UV detection.
Full-length human IDO1 gene was cloned into the pET-28a vector and expressed in E. coli Rosetta (DE3) cells. […] The culture was harvested and frozen at −80 °C until further use. The frozen cells were lysed by sonication in 20 mM Tris pH 7, 400 mM NaCl, 1 mM MgCl2, 20 mM imidazole, 1 mM DTT, 0.5 mg/mL Lysozyme and Protease inhibitor. After centrifugation, the supernatant was loaded into a HisTrap HP column pre-equilibrated with buffer containing 20 mM Tris pH 7, 500 mM NaCl and 20 mM imidazole, and eluted with the same buffer containing 500 mM imidazole. Fractions containing IDO1 were pooled, concentrated, and injected on a size exclusion chromatography column (HiLoad Superdex S75 16/60) to increase purity. hIDO1 fractions were concentrated to 20 mg/mL in 20 mM Tris pH 7 and 150 mM NaCl.
The enzymatic inhibition assays were performed as described by Takikawa et al.[130] with some modifications. Briefly, the reaction mixture (100 µL) contained potassium phosphate buffer (100 mM, pH 6.5) ascorbic acid (20 mM), catalase (400 units/mL), methylene blue (10 µM), purified recombinant IDO1 (2.5 ng/µL), L-Trp (100 µM), Triton X-100 (0.01%) and DMSO (5 µL). The inhibitors were serially diluted 3-fold for at least 8 different concentrations. After incubation at room temperature for 20 min, the reaction was stopped in its linear phase by addition of trichloroacetic acid solution (40 mL, 30% w/v), and the samples were incubated at 50 °C for 30 min. After centrifugation, 80 µl of supernatant from each well were used for HPLC analysis. The mobile phase for HPLC analysis was composed of 50% (v/v) of methanol and 50% of sodium citrate buffer (40 mM, pH 2.4) containing 400 µM sodium dodecyl sulphate. […] All assays were carried out in duplicates. The activity (Act) of each compound was calculated as Act = RT log(IC50) in analogy to the relation between the binding free energy and the Ki value. The ligand efficiency (LE) was calculated as LE = −Act/NHA, where NHA is the number of non-hydrogen atoms (heavy atoms) in the compound.

hIDO1 [2] = biological target: T2, hIDO1 (Homo sapiens, UniProt P14902); conditions: previously determined, cited from earlier work; for Inh. [%]: 200 µM; for IC50: read-out: IC50 [µM] (cellular)
T2 construct: The full ORF of hIDO1 was cloned into the mammalian expression vector pcDNA6/myc-His; myc-His (vector-encoded); host or cells: HEK 293 T
T2 sequence (P14902 whole entry): as above

HEK 293 T cells [3] = conditions: previously determined, 200 µM, cited from earlier work
hIDO1 [4] = biological target: T2, hIDO1; assay: Cellular hIDO1 inhibition (kynurenine production) in transiently transfected HEK 293 T cells; assay type: cell-based
Description: (§1) We tested the cellular hIDO1 inhibitory activity and toxicity of 30 active compounds at a single concentration (Figure 6 and Table 8). As some of the aniline derivatives reacted with Ehrlich’s reagent (p-dimethylaminobenzaldehyde, p-DMAB) used to quantify kynurenine, the kynurenine content of these samples was determined by HPLC. To be able to detect also weak inhibition, compounds were tested at the high concentration of 200 µM (Figure 6A and B, filled bars), except for less soluble compounds (52, 148, 149 and 153), which were tested at a concentration of 50 µM (Figure 6A and B, empty bars).
The cDNA encoding hIDO1 (NCBI, NM 0021464.3) was purchased from Origene as pCMV6-Entry vector (RC206592). The full ORF of hIDO1 was cloned into the mammalian expression vector pcDNA6/myc-His from Invitrogen. Human embryonic kidney 293 T (HEK 293 T) cells were transiently transfected with the plasmid construct encoding hIDO1. A 75 cm^2 flask containing HEK 293 T cells at a confluency of 70% was transfected with jetPEI DNA transfection reagent (Polyplus-transfection), according to manufacturer’s protocol. A total of 20 µg of pcDNA-IDO1 along with 5 µg of pcDNA-GFP plasmid were used for the transfection; GFP was used to evaluate transfection efficiency prior to the cellular assays. 16–18 h post-transfection the 293 T cells were detached with trypsin, centrifuged, and re-suspended in 25 mL of DMEM medium without phenol red, supplemented with penicillin and streptomycin, 10% foetal bovine serum and 1 mM pyruvate (Gibco). Subsequently, 100 µL of cells were distributed to each well of two 96-well round-bottom plates that had been pre-loaded with 100 µL DMEM and the small organic test molecule in DMSO (for a final DMSO concentration of 2%). DMEM medium contains 78 µM L-Trp and was supplemented with 500 µM of L-Trp. Cells transfected with hIDO1 were incubated for 7 h at 37 °C in a CO2 incubator. The reaction was stopped in its linear phase by adding trichloroacetic acid (TCA) to the medium at a final concentration of 4%. Plates were centrifuged for 15 min at 4,000 rpm. 100 µL of supernatant was added to 100 µL of 2% (w/v) DMAB in glacial acetic acid. After 10 min the absorbance was measured at a wavelength of 480 nm to detect kynurenine formation. Alternatively, kynurenine content was determined by HPLC as done for the enzymatic assay.

HEK 293 T cells [5] = assay: Cell viability / cellular toxicity (DAPI staining, cytometry); assay type: cell-based, human; conditions: compound 200 µM, 7 h
Description: as §1
Following DMSO (negative control) or inhibitor treatments, apoptotic cells were detected by 4′,6-diamidino-2-phenylindole (DAPI) staining. Briefly, after 7 h of incubation, cells were washed with PBS, resuspended in PBS with 1 µg/mL DAPI and immediately analysed using a BD LSR II cytometer. A 405 nm laser with 450/50 nm bandpass filter was used to collect data.

[6] = ref 1 of Supporting Information (Röhrig et al. 2021)
[7] = ref 3 of Supporting Information (Röhrig et al. 2016)
[8] = ref 3 of Supporting Information (= main text ref 62)

Compound	LE [kcal/mol/HA] [1] [kcal/mol/HA]	IC50 [1]	melting point [°C]	other results
Clc1cccc(-c2nnc[nH]2)c1 [Compound 136]	0.51	–	–	Inh. [%] (hIDO1 [2]; [6]): 78%; Tox. [%] (HEK 293 T cells [3]; [6]): 0%
Oc1ccccc1-c1cnn[nH]1 [Compound 29]	0.64	–	–	Inh. [%] (hIDO1 [2]; [6]): 95%; Tox. [%] (HEK 293 T cells [3]; [6]): 0%
Nc1ccccc1-c1nnc[nH]1 [Compound 139, 3–(2-aminophenyl)-1,2,4-triazole]	0.65	–	–	Inh. [%] (hIDO1 [2]; [6]): 100%; IC50 (hIDO1 [2]; [6]): 4.6 µM; Tox. [%] (HEK 293 T cells [3]; [6]): 0%
Clc1cccc(-c2cnn[nH]2)c1CCC1CCCC1 [Compound 40]	0.36	9.5 µM	–	Inh. [%] (hIDO1 [2]; [7]): 71%; Tox. [%] (HEK 293 T cells [3]; [8]): 22%
Nc1ccc(Cl)cc1-c1nnc[nH]1 [Compound 11]	0.78	–	–	Inh. [%] (hIDO1 [2]; [6]): 100%; Tox. [%] (HEK 293 T cells [3]; [6]): 0%
CNc1ccc(Cl)cc1-c1nc[nH]n1 [Compound 145, 4-Chloro-N-methyl-2-(1H-1,2,4-triazol-3-yl)aniline]	0.49	8.6 µM and 8.7 µM	207 to 209	inhibition at 200 µM (hIDO1 [4]): 93%; Tox. [%] (HEK 293 T cells [5]): 0 (0) %
Clc1cccc(-c2cnn[nH]2)c1CCc1ccccc1 [Compound 13]	0.33	14 µM	–	Inh. [%] (hIDO1 [2]; [7]): 76%; Tox. [%] (HEK 293 T cells [3]; [8]): 71%; Tox. [%] (HEK 293 T cells [3]; ref 3 of Supporting Information (= main text ref 62), listed as MMG-0472): 70%
Clc1cccc(-c2cnn[nH]2)c1/C=C/c1ccccc1 [Compound 41]	0.29	49 µM	–	Inh. [%] (hIDO1 [2]; [7]): 32%; Tox. [%] (HEK 293 T cells [3]; [8]): 58%
CCCc1ccc(O)c(-c2cnn[nH]2)c1 [Compound 37, 4-Propyl-2-(1H-1,2,3-triazol-5-yl)phenol]	0.56	0.75 µM	138 to 140	–
O=C(c1ccncc1)c1cnn[nH]1 [Compound 122, Pyridin-4-yl(1H-1,2,3-triazol-5-yl)methanone]	–	1200 µM	221 to 223	–
Oc1ccc(Cc2ccccc2)cc1-c1cnn[nH]1 [Compound 38, 4-Benzyl-2-(1H-1,2,3-triazol-5-yl)phenol]	0.29	88 µM	148 to 151	–
O=C(c1ccccn1)c1cnn[nH]1 [Compound 120, Pyridin-2-yl(1H-1,2,3-triazol-5-yl)methanone]	–	> 1000 µM	161 to 163	–
c1ccc(-c2nnc[nH]2)cc1 [Compound 133]	–	–	–	Inh. [%] (hIDO1 [2]; [6]): 0%; Tox. [%] (HEK 293 T cells [3]; [6]): 0%
c1ccc(-c2cnn[nH]2)cc1 [Compound 19]	–	–	–	Inh. [%] (hIDO1 [2]; [6]): 93%; Tox. [%] (HEK 293 T cells [3]; [6]): 3%
Oc1ccccc1-c1nnc[nH]1 [Compound 138]	0.51	–	–	Inh. [%] (hIDO1 [2]; [6]): 52%; Tox. [%] (HEK 293 T cells [3]; [6]): 6%
OC(COc1ccccc1-c1cnn[nH]1)c1ccccc1 (stereo not drawn) [Compound 27, 2–(2-(1H-1,2,3-triazol-5-yl)phenoxy)-1-phenylethan-1-ol]	–	> 500 µM	153 to 155	–
Clc1cccc(-c2cnn[nH]2)c1Cl [Compound 47]	0.49	–	–	IC50 (hIDO1 [2]; ref 4 of Supporting Information (Röhrig et al. 2012)): > 100 µM
O=C(c1cnn[nH]1)c1cc(Cl)ccc1O [Compound 111, (5-Chloro-2-hydroxyphenyl)(1H-1,2,3-triazol-5-yl)methanone]	0.31	365 µM and 370 µM	186 to 188	inhibition at 200 µM (hIDO1 [4]): 20%; Tox. [%] (HEK 293 T cells [5]): 0 (0) %
c1ccc(CCNc2ccccc2-c2cnn[nH]2)cc1 [Compound 28]	–	> 250 µM	129 to 132	–
O=C(c1csnn1)c1cnn[nH]1 [Compound 119, (1,2,3-Thiadiazol-4-yl)(1H-1,2,3-triazol-5-yl)methanone]	0.37	515 µM and 510 µM	170 to 172	inhibition at 200 µM (hIDO1 [4]): 4.8%; Tox. [%] (HEK 293 T cells [5]): 0 (0) %
CCC(=O)Nc1ccc(Cl)cc1-c1nc[nH]n1 [Compound 147, N-(4-Chloro-2-(1H-1,2,4-triazol-3-yl)phenyl)propionamide]	0.47	1.2 µM	168 to 171	inhibition at 200 µM (hIDO1 [4]): 100%; Tox. [%] (HEK 293 T cells [5]): 16 (1) %
Nc1ccc(Cl)c(N)c1-c1nc[nH]n1 [Compound 157, 4-Chloro-2-(1H-1,2,4-triazol-3-yl)benzene-1,3-diamine]	0.55	1 µM	212 to 214	–
c1ccc(CCOc2ccccc2-c2c[nH]nn2)cc1 [Compound 26, 4–(2-Phenethoxyphenyl)-1,2,3-triazole]	–	> 100 µM	91 to 93	–
O=C(c1cnn[nH]1)c1ccc(Br)cc1O [Compound 113, (4-Bromo-2-hydroxyphenyl)(1H-1,2,3-triazol-5-yl)methanone]	0.46	8.2 µM	192 to 194	inhibition at 200 µM (hIDO1 [4]): 36%; Tox. [%] (HEK 293 T cells [5]): 0 (0) %
Clc1cccc(-c2cnn[nH]2)c1 [Compound 30]	0.73	–	–	Inh. [%] (hIDO1 [2]; [6]): 95%; Tox. [%] (HEK 293 T cells [3]; [6]): 0%
Cc1c(Cl)ccc(N)c1-c1nc[nH]n1 [Compound 156, 4-Chloro-3-methyl-2-(1H-1,2,4-triazol-3-yl)aniline]	0.39	90 µM	208 to 210	–
Clc1cc(Cl)c(-c2c[nH]nn2)c(Cl)c1 [Compound 53, 4–(2,4,6-Trichlorophenyl)-1,2,3-triazole]	–	> 500 µM	236 to 238	–
